The results in this text go back to patent US20250296938A1, “Compounds that Interact with the Ras Superfamily for the Treatment of Cancers, Inflammatory Diseases, Rasopathies, and Fibrotic Disease” (SHY Therapeutics, LLC, priority 2018, published 2025).

Like-named read-outs stand apart in the source and are kept apart here.

Common to all, as to assay: Ras GTP binding domain inhibition assay (Cy3-GTP/Cy5-GTP competition)
One test deals with T1, KRas G12D mutant (Homo sapiens, UniProt P01116, G12D).
T1 construct: fused on or other part: His tag, used for capture on nickel-coated plates
As to conditions: 20 μM. The procedure, abridged:
(§1)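 His-tagged Ras proteins were captured on nickel-coated wells in Buffer-I (25 mM Tris-HCl pH 7.4, 27 mM KCl, 137 mM NaCl, 1 mM MgCl2, 1 mM DTT) or Buffer-II (50 mM Tris-HCl pH 7.0). Compounds (20 μM or serial dilution, 1% DMSO) were incubated 3 h at RT, ±Sos(556-1049) in the final hour. Bound Cy3-/Cy5-GTP (100 nM, 45 min) was read after washing.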

A further test concerns KRas Q61H mutant. Further details: species or system human. To be noted: 20 μM. In a few lines:
as §1

Another test relates to KRas wild type. The arrangement: species or system human. As to conditions: 20 μM; for KRas wild type: % inh.: without SOS. In a few lines: as §1
The subject of another test is KRas G12C mutant. Further details: species or system human. To be noted: 20 μM. In a few lines: as §1
[1] abbreviates: with SOS, read-out: KRas G-12D mutant + SOS: % inh.
Setting [2] is: without SOS, read-out: KRas G12D mutant: % inh.

Take `Cn1ccnc1-c1nc(O)c(O)c(C(=O)N2CCCCC2)n1` [drawing 826]: the results for the inhibition at 20 µM at KRas G12D mutant (setting [1]) and on KRas G12D mutant (setting [2]) were 1 to 25% and 26 to 50%, respectively. Also, the “KRas Q61H mutant + SOS: % inh.” value in the test on KRas Q61H mutant (with SOS) is reported as “B (26-50% inhibition)”. Besides, the “KRas Q61H mutant: % inh.” value in the test on KRas Q61H mutant (without SOS) is listed as “B (26-50% inhibition)”. Besides, the “KRas wild type + SOS: % inh.” value in the test with KRas wild type (with SOS) is listed as “A (1-25% inhibition)”. In the test on KRas wild type, the “KRas wild type: % inh.” value was “C (51-75% inhibition)”. Besides, the “KRas G12C mutant + SOS: % inh.” value in the test with KRas G12C mutant (with SOS) is “A (1-25% inhibition)”. Besides, the “KRas G12C mutant: % inh.” value with KRas G12C mutant (without SOS) is reported as “B (26-50% inhibition)”.

In the case of `O=C(NCc1ccccc1)c1nc(-c2ccccn2)nc(O)c1O` [drawing 821], the inhibition at 20 µM on KRas G12D mutant (setting [1]) and on KRas G12D mutant (setting [2]) was 51 to 75% each time. Besides, the “KRas Q61H mutant + SOS: % inh.” value in the test with KRas Q61H mutant (with SOS) is “C (51-75% inhibition)”. Further, the “KRas Q61H mutant: % inh.” value with KRas Q61H mutant (without SOS) is “D (76-100% inhibition)”. Moreover, the “KRas wild type + SOS: % inh.” value in the test on KRas wild type (with SOS) is recorded as “B (26-50% inhibition)”. Also, the “KRas wild type: % inh.” value in the test with KRas wild type is on record as “D (76-100% inhibition)”. For the same compound, in the test on KRas G12C mutant (with SOS), the “KRas G12C mutant + SOS: % inh.” value is on record as “C (51-75% inhibition)”. Besides, in the test on KRas G12C mutant (without SOS), the “KRas G12C mutant: % inh.” value is on record as “B (26-50% inhibition)”.

As to `COC1CCN(c2nc(-c3nccn3C)nc3sc(-c4cccnc4)c(-c4ccccc4)c23)C1.Cl` (stereo not shown), the inhibition at 20 µM on KRas G12D mutant (setting [1]) and at KRas G12D mutant (setting [2]) was 51 to 75% in each case. For the same compound, the “KRas Q61H mutant + SOS: % inh.” value in the test with KRas Q61H mutant (with SOS) is “C (51-75% inhibition)”. The “KRas Q61H mutant: % inh.” value with KRas Q61H mutant (without SOS) is “B (26-50% inhibition)”. For the same compound, in the test on KRas wild type (with SOS), the “KRas wild type + SOS: % inh.” value is “C (51-75% inhibition)”. Further, in the test with KRas wild type, the “KRas wild type: % inh.” value is recorded as “C (51-75% inhibition)”. Also, the “KRas G12C mutant + SOS: % inh.” value with KRas G12C mutant (with SOS) is reported as “D (76-100% inhibition)”. For the same compound, the “KRas G12C mutant: % inh.” value with KRas G12C mutant (without SOS) is “D (76-100% inhibition)”.

For the compound `COCCn1cc(-c2sc3nc(-c4nccn4C)nc(N4CCC(OC)C4)c3c2-c2ccccc2)cn1.Cl` (stereo not shown), the inhibition at 20 µM on KRas G12D mutant (setting [1]) and at KRas G12D mutant (setting [2]) was 51 to 75% in each case. Moreover, in the test on KRas Q61H mutant (with SOS), the “KRas Q61H mutant + SOS: % inh.” value was “C (51-75% inhibition)”. Besides, the “KRas Q61H mutant: % inh.” value in the test with KRas Q61H mutant (without SOS) is on record as “B (26-50% inhibition)”. Also, the “KRas wild type + SOS: % inh.” value in the test on KRas wild type (with SOS) was “C (51-75% inhibition)”. In the test with KRas wild type, the “KRas wild type: % inh.” value is “D (76-100% inhibition)”. Also, the “KRas G12C mutant + SOS: % inh.” value in the test with KRas G12C mutant (with SOS) is recorded as “D (76-100% inhibition)”. The “KRas G12C mutant: % inh.” value in the test on KRas G12C mutant (without SOS) is “D (76-100% inhibition)”.

Take `COc1nscc1-c1sc2nc(-c3nccn3C)nc(N3CCC(OC)C3)c2c1-c1ccccc1.Cl` (stereo not shown): the inhibition at 20 µM on KRas G12D mutant (setting [1]) was 51 to 75%; on KRas G12D mutant (setting [2]), 26 to 50%. For the same compound, the “KRas Q61H mutant + SOS: % inh.” value with KRas Q61H mutant (with SOS) is “D (76-100% inhibition)”. Moreover, the “KRas Q61H mutant: % inh.” value in the test on KRas Q61H mutant (without SOS) was “C (51-75% inhibition)”. Also, the “KRas wild type + SOS: % inh.” value in the test with KRas wild type (with SOS) was “D (76-100% inhibition)”. For the same compound, the “KRas wild type: % inh.” value in the test with KRas wild type was “B (26-50% inhibition)”. Also, the “KRas G12C mutant + SOS: % inh.” value in the test with KRas G12C mutant (with SOS) is “D (76-100% inhibition)”. Further, in the test on KRas G12C mutant (without SOS), the “KRas G12C mutant: % inh.” value was “B (26-50% inhibition)”.

`Cc1c(-c2ccn(C)n2)sc2nc(-c3nccn3C)nc(NCCOC(=O)N(C)C)c12` [drawing 918]: the inhibition at 20 µM at KRas G12D mutant (with SOS (Table 7A), read-out: KRas G12D mutant + SOS: % inh.) lay in the range of 76 to 100%; at KRas G12D mutant (without SOS (Table 7A), read-out: KRas G12D mutant: % inh.) it was 76 to 100%. Moreover, in the test on KRas Q61H mutant (with SOS (Table 7A)), the “KRas Q61H mutant + SOS: % inh.” value is given as “D (76-100% inhibition)”. Besides, the “KRas Q61H mutant: % inh.” value in the test with KRas Q61H mutant (without SOS (Table 7A)) is reported as “C (51-75% inhibition)”. Moreover, the “KRas wild type + SOS: % inh.” value with KRas wild type (with SOS (Table 7A)) was “D (76-100% inhibition)”. The “KRas wild type % inh.” value with KRas wild type (without SOS (Table 7A)) is listed as “D (76-100% inhibition)”. Further, the “KRas G12C mutant + SOS: % inh.” value with KRas G12C mutant (with SOS (Table 7A)) was “C (51-75% inhibition)”. Moreover, the “KRas G12C mutant: % inh.” value with KRas G12C mutant (without SOS (Table 7A)) is listed as “D (76-100% inhibition)”.

As to `CN(Cc1ccccc1)C(=O)c1nc(-c2ccccn2)nc(O)c1O` [drawing 799], the inhibition at 20 µM at KRas G12D mutant (setting [1]) and on KRas G12D mutant (setting [2]) was 26 to 50% in each case. The “KRas Q61H mutant + SOS: % inh.” value with KRas Q61H mutant (with SOS) is listed as “B (26-50% inhibition)”. For the same compound, the “KRas Q61H mutant: % inh.” value in the test with KRas Q61H mutant (without SOS) is “C (51-75% inhibition)”. Also, the “KRas wild type + SOS: % inh.” value with KRas wild type (with SOS) was “B (26-50% inhibition)”. For the same compound, the “KRas wild type: % inh.” value with KRas wild type is on record as “C (51-75% inhibition)”. Besides, the “KRas G12C mutant + SOS: % inh.” value in the test with KRas G12C mutant (with SOS) is “B (26-50% inhibition)”. The “KRas G12C mutant: % inh.” value with KRas G12C mutant (without SOS) is listed as “C (51-75% inhibition)”.

For the compound `COc1ccc(-c2c(-c3ccn(C)n3)sc3nc(-c4nccn4C)nc(N4CCC(OC)C4)c23)cc1` (stereo not shown) [drawing 868], the inhibition at 20 µM at KRas G12D mutant (setting [1]) was 1 to 25%; at KRas G12D mutant (setting [2]), 0%. Moreover, the “KRas Q61H mutant + SOS: % inh.” value in the test with KRas Q61H mutant (with SOS) was “B (26-50% inhibition)”. Besides, the “KRas Q61H mutant: % inh.” value with KRas Q61H mutant (without SOS) is recorded as “A (1-25% inhibition)”. Besides, the “KRas wild type + SOS: % inh.” value in the test on KRas wild type (with SOS) is “A (1-25% inhibition)”. Moreover, the “KRas wild type: % inh.” value with KRas wild type was 0 (0% inhibition). For the same compound, the “KRas G12C mutant + SOS: % inh.” value with KRas G12C mutant (with SOS) is recorded as “A (1-25% inhibition)”. In addition, the “KRas G12C mutant: % inh.” value in the test on KRas G12C mutant (without SOS) is on record as 0 (0% inhibition).
